The record followed here is ChEMBL document CHEMBL5257135, “Synthesis of Artesunic Acid-Coumarin Hybrids as Potential Antimelanoma Agents” (ACS Med Chem Lett, 2023).

In data set [1] the test system is SK-MEL3. Description: Anticancer activity against human SK-MEL3 cells assessed as reduction in cell viability incubated for 24 hrs by MTT assay. The data set is classed as functional, cell-based. Particulars: SK-MEL3, 24 h. (In general: Formazan colour is commonly taken as a measure of viable cells.)
Data set [2] has as its system SK-MEL-28. Description: Anticancer activity against human SK-MEL-28 cells assessed as reduction in cell viability incubated for 24 hrs by MTT assay. Particulars: SK-MEL-28, 24 h. Type of data set: functional, cell-based.
Data set [3] can be described thus: Cytotoxicity against human C3PV cells assessed as reduction in cell viability incubated for 24 hrs by MTT assay. Type of data set: toxicity, cell-based. Conditions: for IC50 at 24 h: human, C3PV cells; for IC50: c3pv.
A short description of data set [4]: Selectivity index, ratio of IC50 for cytotoxicity against human C3PV cells to IC50 for anticancer activity against human SK-MEL3 cells. Type of data set: toxicity, cell-based. Conditions: C3PV cells and SK-MEL3 cells, read-out: Ratio IC50.
The nature of data set [5]: Drug localization in human SK-MEL3 cell nucleus incubated for 24 hrs by propidium iodide staining based Confocal microscopy. The data set is classed as ADME, subcellular. Conditions: sk-mel3, 24 h.
Data set [6] concerns SK-MEL3. The data set is described as follows: Anticancer activity against human SK-MEL3 cells assessed as reduction in cell viability incubated for 24 hrs in presence of Artesunic acid by MTT assay. Type of data set: functional, cell-based. Particulars: SK-MEL3, 24 h.
A short description of data set [7]: Cytotoxicity against human C3PV cells assessed as reduction in cell proliferation at 0.05 uM to incubated for 24 hrs by trypan blue exclusion assay. The data set is classed as toxicity, cell-based.
For data set [8], the system named is SK-MEL3. Description: Induction of apoptosis in human SK-MEL3 cells assessed as dead cells at 0.05 uM by fluorescein diacetate, propidium iodide, and Hoechst staining based confocal microscopy. Type of data set: functional, cell-based.
Data set [9] has as its system SK-MEL-28. Description: Antiproliferative activity against human SK-MEL-28 cells assessed as reduction in cell proliferation at 0.05 uM to incubated for 24 hrs by trypan blue exclusion assay. The data set is classed as functional, cell-based.
Data set [10] deals with SK-MEL3. Description: Antiproliferative activity against human SK-MEL3 cells assessed as reduction in cell proliferation at 0.05 uM to incubated for 24 hrs by trypan blue exclusion assay. Type of data set: functional, cell-based.
For data set [11], the system named is SK-MEL3. The data set is described as follows: Anticancer activity against human SK-MEL3 cells assessed as reduction in cell viability incubated for 24 hrs in presence of deferoxamine by MTT assay. The data set is classed as functional, cell-based. Conditions: SK-MEL3, 24 h.
The subject of data set [12] is SK-MEL-28. Description: Induction of apoptosis in human SK-MEL-28 cells assessed as dead cells at 0.05 uM by fluorescein diacetate, propidium iodide, and Hoechst staining based confocal microscopy. Type of data set: functional, cell-based.
In data set [13] the test system is C3PV. The data set is described as follows: Induction of apoptosis in human C3PV cells assessed as dead cells at 0.05 uM by fluorescein diacetate, propidium iodide, and Hoechst staining based confocal microscopy. Type of data set: functional, cell-based.
Data set [14] relates to SK-MEL3. Description: Antiproliferative activity against human SK-MEL3 cells assessed as reduction in cell proliferation at 0.015 uM to incubated for 24 hrs by trypan blue exclusion assay. The data set is classed as functional, cell-based.
For data set [15], the system named is SK-MEL-28. Description: Induction of apoptosis in human SK-MEL-28 cells assessed as dead cells at 0.015 uM by fluorescein diacetate, propidium iodide, and Hoechst staining based confocal microscopy. Type of data set: functional, cell-based.
Data set [16] concerns SK-MEL3. The data set is described as follows: Induction of apoptosis in human SK-MEL3 cells assessed as dead cells at 0.015 uM by fluorescein diacetate, propidium iodide, and Hoechst staining based confocal microscopy. The data set is classed as functional, cell-based.
Data set [17] has as its system SK-MEL-28. Description: Antiproliferative activity against human SK-MEL-28 cells assessed as reduction in cell proliferation at 0.015 uM to incubated for 24 hrs by trypan blue exclusion assay. Type of data set: functional, cell-based.
Data set [18] in a line: Cytotoxicity against human C3PV cells assessed as reduction in cell proliferation at 0.015 uM to incubated for 24 hrs by trypan blue exclusion assay. The data set is classed as toxicity, cell-based.
For data set [19], the system named is C3PV. Description: Induction of apoptosis in human C3PV cells assessed as dead cells at 0.015 uM by fluorescein diacetate, propidium iodide, and Hoechst staining based confocal microscopy. Type of data set: functional, cell-based.

The structures appear in SMILES notation. Calls of active or inactive are those of the source. No cut-off for these calls is given here.

In general, IC50 refers to the concentration that gives 50% inhibition.

Take `Cc1cc(=O)oc2cc(O)ccc12` [HYMECROMONE]: the IC50 is 1.6 µM with SK-MEL3 [1] and 0.58 µM with SK-MEL-28 [2]. Besides, the IC50 at 24 h in data set [3] is 7 µM. In addition, in data set [4], the selectivity ratio amounted to 4.37.

Consider `C[C@H]1[C@H](OC(=O)CCC(=O)Oc2cc3ccccc3oc2=O)O[C@@H]2C[C@]3(C)CC[C@H]4[C@H](C)CC[C@@H]1[C@@]24OO3`, for which the IC50 with SK-MEL3 [1] was found to be 1 µM; in the data set on SK-MEL-28 [2], 38 µM. The IC50 at 24 h in data set [3] amounted to 5.64 µM. In addition, the selectivity ratio in data set [4] came to 5.64.

For the compound `Nc1ccc2c(C(F)(F)F)cc(=O)oc2c1`, the values for the IC50 in the data set on SK-MEL3 [1] and in the data set with SK-MEL-28 [2] were 0.93 µM and 0.98 µM, respectively. The Drug uptake result in data set [5] is listed as “Active”. For the same compound, in [3], the IC50 at 24 h came to 27.4 µM. Further, the selectivity ratio in [4] worked out at 29.4.

Take `C[C@H]1[C@H](OC(=O)CCC(=O)Oc2ccc3c(C(F)(F)F)cc(=O)oc3c2)O[C@@H]2C[C@]3(C)CC[C@H]4[C@H](C)CC[C@@H]1[C@@]24OO3`: the IC50 in the data set on SK-MEL3 [1] was found to be 3.6 µM; with SK-MEL-28 [2], 6.84 µM; in data set [3] it was 1060 µM. Moreover, the selectivity ratio in data set [4] worked out at 294.

Regarding `O=c1ccc2ccc(O)cc2o1` [UMBELLIFERONE], the IC50 was 2.1 µM in the data set on SK-MEL3 [1], 0.48 µM with SK-MEL-28 [2] and 1.6 µM with SK-MEL3 [6]. The half-maximal inhibitory concentration (IC50) at 24 h in data set [3] was 20.9 µM. The selectivity ratio in [4] was determined as 9.9.

In the case of `C[C@H]1[C@H](OC(=O)CCC(=O)Nc2ccc3c(C(F)(F)F)cc(=O)oc3c2)O[C@@H]2C[C@]3(C)CC[C@H]4[C@H](C)CC[C@@H]1[C@@]24OO3`, the IC50 in the data set on SK-MEL3 [1] came to 1.3 µM; with SK-MEL-28 [2], 1090 µM. Moreover, the Drug uptake result in data set [5] is on record as “Active”. Also, the IC50 at 24 h in data set [3] was 0.21 µM. For the same compound, the selectivity ratio in [4] was 0.16.

As for `O=c1oc2ccccc2cc1O` [3-HYDROXYCOUMARIN], the results for the concentration for half-maximal inhibition (IC50) in the data set on SK-MEL3 [1] and with SK-MEL-28 [2] were 6.8 µM and 1.2 µM, respectively. For the same compound, the IC50 at 24 h in data set [3] stood at 12.5 µM. Moreover, the selectivity ratio in data set [4] is 1.8.

For `C[C@H]1[C@H](OC(=O)CCC(=O)Oc2ccc3ccc(=O)oc3c2)O[C@@H]2C[C@]3(C)CC[C@H]4[C@H](C)CC[C@@H]1[C@@]24OO3`, the IC50 with SK-MEL3 [1] is 0.05 µM; with SK-MEL-28 [2], 2.2 µM; in the data set with SK-MEL3 [11], 0.118 µM. In addition, in data set [7], the Activity result is “Non-Toxic”. Besides, the result with SK-MEL3 [8], in the data set with SK-MEL3 [10] and in the data set with SK-MEL-28 [12] was Active. The result with SK-MEL-28 [9] and in the data set with C3PV [13] was inactive. Moreover, in [3], the IC50 at 24 h amounted to 216 µM. Further, the selectivity ratio in data set [4] was 4320.

Turning to `C[C@H]1[C@H](OC(=O)CCC(=O)Oc2cc3ccc(=O)oc3cc2O)O[C@@H]2C[C@]3(C)CC[C@H]4[C@H](C)CC[C@@H]1[C@@]24OO3`, the IC50 in the data set on SK-MEL3 [1] worked out at 1.9 µM; with SK-MEL-28 [2] it was 97.9 µM; in data set [3], 686 µM. Moreover, in data set [4], the selectivity ratio is 361.

Turning to `CC(=O)O[C@H]1C(=O)[C@@]2(C)[C@H]([C@H](OC(=O)c3ccccc3)[C@]3(O)C[C@H](OC(=O)[C@H](O)[C@@H](NC(=O)c4ccccc4)c4ccccc4)C(C)=C1C3(C)C)[C@]1(OC(C)=O)CO[C@@H]1C[C@@H]2O` [PACLITAXEL], the IC50 was determined as 4.73 µM with SK-MEL3 [1] and 1.07 µM with SK-MEL-28 [2]. The IC50 at 24 h in [3] is 78.9 µM. Also, the selectivity ratio in data set [4] was 16.7.

As for `O=c1ccc2cc(O)c(O)cc2o1` [ESCULETIN], the half-maximal inhibitory concentration (IC50) in the data set with SK-MEL3 [1] came to 1.7 µM; in the data set on SK-MEL-28 [2] it was 0.96 µM. The IC50 at 24 h in data set [3] was 25.8 µM. Further, in data set [4], the selectivity ratio came to 15.2.

As for `COc1cc2ccc(=O)oc2cc1O` [SCOPOLETIN], the IC50 was found to be 1.5 µM with SK-MEL3 [1] and 3.43 µM in the data set on SK-MEL-28 [2]. The IC50 at 24 h in [3] is 1.6 µM. The selectivity ratio in data set [4] was determined as 1.1.

`O=c1cc(C(F)(F)F)c2ccc(O)cc2o1`: the IC50 worked out at 0.58 µM with SK-MEL3 [1] and 1.1 µM in the data set with SK-MEL-28 [2]. Moreover, the IC50 at 24 h in data set [3] worked out at 2.5 µM. In addition, in [4], the selectivity ratio is 4.3.

Take `O=c1cc(O)c2ccccc2o1` [4-HYDROXYCOUMARINS]: the IC50 in the data set with SK-MEL3 [1] stood at 2.1 µM; in the data set with SK-MEL-28 [2], 1.3 µM. The IC50 at 24 h in data set [3] came out at 0.6 µM. For the same compound, the selectivity ratio in [4] was 0.29.

Consider `O=c1ccc2cc(O)ccc2o1` [6-HYDROXYCOUMARIN], for which the 50% inhibitory concentration (IC50) with SK-MEL3 [1] was 1.85 µM; in the data set on SK-MEL-28 [2] it was 0.45 µM; with SK-MEL3 [6], 1.14 µM. Also, in data set [3], the IC50 at 24 h turned out to be 2.95 µM. For the same compound, the selectivity ratio in [4] turned out to be 1.6.

For `C[C@H]1[C@H](OC(=O)CCC(=O)Oc2ccc3oc(=O)ccc3c2)O[C@@H]2C[C@]3(C)CC[C@H]4[C@H](C)CC[C@@H]1[C@@]24OO3`, the outcome with SK-MEL3 [14] and in the data set on SK-MEL3 [16] was Active. Further, the IC50 in the data set with SK-MEL3 [1] is 0.015 µM; in the data set on SK-MEL-28 [2], 576 µM; in the data set with SK-MEL3 [11], 0.001 µM. Further, the result in the data set with SK-MEL-28 [15], with SK-MEL-28 [17] and in the data set on C3PV [19] was inactive. For the same compound, in data set [3], the IC50 at 24 h was 132 µM. Also, in data set [4], the selectivity ratio turned out to be 8810. For the same compound, in data set [18], the Activity result is recorded as “Non-Toxic”.

For the compound `COc1cc2ccc(=O)oc2cc1OC(=O)CCC(=O)O[C@@H]1O[C@@H]2C[C@]3(C)CC[C@H]4[C@H](C)CC[C@@H]([C@H]1C)[C@@]24OO3`, the IC50 in the data set with SK-MEL3 [1] was 4.1 µM; in the data set with SK-MEL-28 [2], 132 µM. The IC50 at 24 h in data set [3] was 3.05 µM. Besides, the selectivity ratio in [4] was found to be 0.74.

Take `Cc1cc(=O)oc2cc(OC(=O)CCC(=O)O[C@@H]3O[C@@H]4C[C@]5(C)CC[C@H]6[C@H](C)CC[C@@H]([C@H]3C)[C@@]46OO5)ccc12`: the IC50 was 2.6 µM in the data set on SK-MEL3 [1] and 13.5 µM with SK-MEL-28 [2]. The IC50 at 24 h in data set [3] was determined as 0.66 µM. In addition, in data set [4], the selectivity ratio came to 0.25.

Regarding `C[C@H]1[C@H](OC(=O)CCC(=O)Oc2cc(=O)oc3ccccc23)O[C@@H]2C[C@]3(C)CC[C@H]4[C@H](C)CC[C@@H]1[C@@]24OO3`, the half-maximal inhibitory concentration (IC50) came out at 2.7 µM with SK-MEL3 [1] and 72.8 µM in the data set with SK-MEL-28 [2]. Besides, the IC50 at 24 h in [3] was determined as 321 µM. Further, the selectivity ratio in data set [4] is 119.
